In US4966962A, “Reverse analogue of actinomycin D” (Trustees of Boston University, priority 1988, dated 1990):

Legend:
[1] = tested on: supercoiled closed-circular pBR322 DNA; assay: Cleavage of closed circular pBR322 DNA; format: biochemical; conditions: 20° C., 1 h, Na2S2O4, FeCl2
Method: The cleavage of DNA was followed by monitoring of the conversion of supercoiled closed-circular pBR322 DNA to open-circular DNA (analyzed by agarose gel electrophoresis and quantitated by staining with 0.5 ug/mL of ethidium bromide for 30 min and densitometry; (Table II). SAD and RAD show strong DNA-cleaving ability in the presence of sodium hydrosulfite and ferrous chloride. Presumably, sodium hydrosulfite acts as a reducing agent and regenerates Fe(II) from Fe(III) to produce a continuous source of the active metal ion. When the DNA-cleaving reaction with the analogues was performed at 20° C., the ratio of cleaved DNA (open circular form DNA versus closed circular DNA) was almost maximum within 1 h. […] Cleavage of DNA by the analogues is aided by the actinomycin chromopeptide moiety, which acts as a site-specific binder to DNA, and is effected by the aminoquinone function which is chelated to the ferrous ion during the process, and this is the likely candidate which generates the radical species.
Plasmid DNA pBR322 (0.5 ug) was dissolved in /8 μL of a reaction buffer (5 mM […], 10 mM Tris-HCl). To this solution, 1 μL of the 10 mM aqueous solution of the agent containing 1 mM FeCl2 was added. The mixture was incubated for 0.5-2 h at 20° or 37° C. Then, the incubation mixture was mixed with 10 uL of sample loading buffer (50% glycerin in 2 X Boyer's buffer containing 0.01% bromophenol blue). Finally, 5 uL of the mixture was analyzed by 0.7% agarose gel electrophoresis (120 V, Boyer's buffer; the migration distance of bromophenol blue was 5.0 cm). The gel was stained with […] of ethidium bromide and then quantitated by densitometry.
^a Ten microliters of 200 u M pBR322 DNA nucelotides in UM 10 mM
TrisHCl (pH 7.8) and 50 mM NaCl, containing 4 mM Na2 --S2
O4 and 100 μM FeCl2, was incubated with drug concentration a
20° C. for 1 h; the reaction mixture was kept saturated with air
throughout the incubation period.
^b Percentage of DNA was calculated from the amounts of openand
closedcir- cular DNA in the incubation mixture.

colon 38 adenocarcinoma = assay: Activity against advanced colon carcinoma C38 tumor; format: in vivo, CDF1 mice; conditions: for % inhibn of tumor: tumors measured day 21; for activity relative to AMD at equivalent doses: every 4 days, three times, from day 1 after implant
Method: In view of favorable activity agianst colon 26 carcinoma, further experiments using the active analogues were carried out on the advanced colon adenocarcinomas of mouse colon 38. […] The superiority of RAD III and SAD over AMD in inhibiting colon 38 carcinoma is evident from the data of both tumor weight inhibition and increases in survival time of the treated over nontreated mice and the larger number of long-term survivors produced by these analogues.
^a CDF1 mice were injected sc with colon 38 adenocarcinoma
fragments (70 mg) and treated with drugs with iv injections on day 1, 5,
and 9 following tumor imoplantation on day 0. ^b [100 (tumor weight o
treated mice/tumor weight of untreated mice)] × 100; data pooled
from two experiments, tumors measured on day 21 after implantation ^c
(Median survival time of treated mice/median survival of untreated mice)
× 100; in parenthesis, number of over 100 day survivors/number of […]

mammary MX-1 = assay: Treatment of mammary MX-1 tumor; format: in vivo; conditions: at the doses tested
[2] = tested on: human colon carcinoma HT-29 cell line; assay: Cell viability by soft agar cloning; format: cell-based; conditions: 2 h treatment at 37° C., from plot of concentration vs colony formation
Method: Furthermore, the activity of the analogues against a human colon carcinoma HT-29 cell line in culture was evaluated. After the cells were treated for 2 h with 0.01-10.0 uM of the drugs at 37° C., the cells were washed with ice-cold PBS (phosphate buffered saline), and the cell viability was assessed by soft agar cloning. Cells viability was expressed as the percentage of colonies from the drug-treated cells relative to control cells after correcting for the cloning efficiency, which ranged from 60% to 80%.

[3] = Maximum tolerated dose (LD10) in tumor-free male mice; conditions: ip days 1, 5, 9; deaths observed during 21 days; from plot of log dose vs percent mortality
Method: The analogues were also tested in tumor-free male mice for their LD10 values (Table XIV). The animals were given a broad range of doses (ip) on days 1, 5, and 9. The maximum tolerated doses of AMD and the analogues that caused death in only 10% of the tested animals in 21 days (i.e., LD10) were recorded as MTD. […] On the basis of these values, the calculated therapeutic index values of SAD is 96, and those of RAD I, II, and III are 60, 67, and 70, respectively.
control in P388 tumor bearing mice. ^c MTD (maximum tolerated dose) i
the lethal dose (milligram/kilogram) for 10% normal BDF1 male mice
days). Values were calculated from a plot of log dose vs percent

[4] = tested on: P388/S (adriamycin sensitive) leukemia; assay: Antitumor activity in vivo, P388/S leukemia; parameters: species or system mice; conditions: for tumor free survivors/total on day 60: P388/S, at optimal dose, ip days 1, 5, 9; for effectiveness relative to AMD with respect to %ILS and long-time survivors: P388 lymphocytic leukemia in mice
Method: The analogues were tested for their antitumor activities in P388 lymphocytic leukemia in male BDF1 mice.
^a Male CDF1 mic inoculated ip: 10^6 cells inoculum, day 0.
Drugs administered in 10% dimethyl sulfoxidesaline on days 1, 5, and 9. %
ILS = percent increase in life span. Fractions in parentheses = tumor fre
survivors/total on day 60^b. P388/S (adriamycin sensitive) and
P388/ADR (adriamycin resistant) tumors were evaluated in the same
experiment with agent listed.

[5] = tested on: CX-1 human colon adenocarcinoma; assay: Chemotherapy of human colon CX-1 tumor heterotransplanted in nude mice; format: in vivo, human tumor in athymic mice; conditions: for response of CX-1 tumor to treatment (in words): three iv treatments weekly from 15th day of transplant, at the doses tested; for % T/C, optimal: TST 15, observed day 22
Method: Tables XI and XII show the effectiveness of SAD (2) and RAD (3b and 3c) against CX-1 human colon adenocarcinoma heterotransplanted into athymic mice, with three iv treatments with drugs on a weekly schedule starting on the 15th day of tumor transplant. AMD and the analogues were tested at doses of 45 and 60 ug/kg.
^a -, % T/C high than 50%; ±, % T/C close to 50%; +, % T/C from 50
to 35%; ++, % T/C from 35% to 20%; +++, % T/C lower than 20%; ++++,
regression of the tumor to a volume lower than 10% of the volume at the
start of treatment. ^b Statistically significant as evaluated by the
^a Intravenous treatment, once a week for three weeks; eight mice per
group. ^b TST; number of days between tumor transplant and starting o
treatment. ^c Numbers in parentheses; day of observation after the […]

[6] = dose 0.30 mg/kg iv days 1, 5, 9
[7] = dose 0.60 mg/kg iv days 1, 5, 9
[8] = dose 1.20 mg/kg iv days 1, 5, 9

| SMILES | Percentage of closed circular pBR322 DNA cleaved [1] [%] | Percentage of closed circular pBR322 DNA cleaved ([1]; concn 25 M (so in the source)) [%] | Percentage of closed circular pBR322 DNA cleaved ([1]; concn 50 M (so in the source)) [%] | Percentage of closed circular pBR322 DNA cleaved ([1]; concn 100 M (so in the source)) [%] | % T/C (median survival time) (colon 38 adenocarcinoma; [6]) [%] | over 100 day survivors/number of mice (colon 38 adenocarcinoma; [6]) | % inhibn of tumor (colon 38 adenocarcinoma; [6]) [%] | % T/C (median survival time) (colon 38 adenocarcinoma; [7]) [%] | over 100 day survivors/number of mice (colon 38 adenocarcinoma; [7]) | % inhibn of tumor (colon 38 adenocarcinoma; [7]) [%] | % T/C (median survival time) (colon 38 adenocarcinoma; [8]) [%] | over 100 day survivors/number of mice (colon 38 adenocarcinoma; [8]) | % inhibn of tumor (colon 38 adenocarcinoma; [8]) [%] | activity relative to AMD at equivalent doses (colon 38 adenocarcinoma) | response of mammary MX-1 to treatment (mammary MX-1) | LD90, drug concentration producing 90% reduction in cell viability [2] [µM] | MTD (maximum tolerated dose), lethal dose for 10% of normal mice (LD10) [3] [milligram/kilogram] | tumor free survivors/total on day 60 [4] | effectiveness relative to AMD with respect to %ILS and long-time survivors [4] | response of CX-1 tumor to treatment (in words) [5] | other results |
| --- | --- | --- | --- | --- | --- | --- | --- | --- | --- | --- | --- | --- | --- | --- | --- | --- | --- | --- | --- | --- | --- |
| Cc1c2oc3c(C)c(O)c(N)c(C(=O)N[C@@H]4C(=O)N[C@H](C(C)C)C(=O)N5CCC[C@H]5C(=O)N(C)CC(=O)N(C)[C@@H](C(C)C)C(=O)O[C@@H]4C)c3nc-2c(C(=O)N[C@@H]2C(=O)N[C@H](C(C)C)C(=O)N3CCC[C@H]3C(=O)N(C)CC(=O)N(C)[C@@H](C(C)C)C(=O)O[C@@H]2C)c(N)c1=O [SAD (2)] | 35 | 50 | 50 | 65 | 278 | 5/9 | 95 | 278 | 6/9 | 97 | 211 | 2/9 | 99 | about 150% | practically ineffective | 0.1 | 2.40 | 4/8 | two-to threefold | responded fairly well to SAD treatment but at 60 ug/kg only |  |
| Cc1c2oc3c(C)c4oc(CC(=O)NCCCCN)nc4c(C(=O)N[C@@H]4C(=O)N[C@H](C(C)C)C(=O)N5CCC[C@H]5C(=O)N(C)CC(=O)N(C)[C@@H](C(C)C)C(=O)O[C@@H]4C)c3nc-2c(C(=O)N[C@@H]2C(=O)N[C@H](C(C)C)C(=O)N3CCC[C@H]3C(=O)N(C)CC(=O)N(C)[C@@H](C(C)C)C(=O)O[C@@H]2C)c(N)c1=O [RAD III (3c)] | 40 | 45 | 50 | 58 | 170 | 1/9 | 80 | 250 | 6/9 | 93 | 231 | 3/9 | 94 | about 150% | practically ineffective | 5.0 | 3.50 | 6/8 | two-to threefold | responded remarkably well to the treatment of RAD III at doses of 45 and 60 ug/kg | P388/S optimal dose ([4]; ip on days 1, 5, and 9): 1.0 mg/kg; % T/C, optimal ([5]; dose 45 μg/kg iv once a week for three weeks): 5%; % T/C, optimal ([5]; dose 60 μg/kg iv once a week for three weeks): 3% |
